Experimental data from patent US11718610B2, “Compounds containing benzosultam” (MEDSHINE DISCOVERY INC., priority 2020, dated 2023).

Assays:
Colo205 cells = test: Colo205 (BRAF V600E) antiproliferative activity experiment (CellTiter-glo); type: cell-based; details: Homo sapiens, COLO 205, 72 h, cultured 3 days
Method: Experimental Embodiment 4: Colo205 (BRAF^V600E) Antiproliferative Activity Experiment
Cell line COLO205 (purchased from Procell), RPMI1640 culture medium, penicillin/streptomycin antibiotics were purchased from Vicente, and fetal bovine serum was purchased from Biosera. CellTiter-glo (cell viability chemiluminescence detection reagent) reagent was purchased from Promega.
COLO205 cells were seeded in a white 96-well plate with […] of cell suspension per well containing 3000 of COLO205 cells. The cell plate was placed in a carbon dioxide incubator and cultured overnight. The compound to be tested was diluted 3-fold to the 9th concentration with a pipette, that is, diluted from […], and a double-duplicate experiment was set-up. 78 μmol of culture medium was added to the middle plate, then 2 μmol of gradient dilution compound per well was transferred to the middle plate according to the corresponding position, and 20 μmol of per well was mixed and transferred to the cell plate. The concentration of the compound transferred to the cell plate ranged from 1 μmol to 0.15 nmol. The cell plate was placed in a carbon dioxide incubator and cultured for 3 days. Another cell plate was prepared, and the signal value was read as the maximum value (max value in the following equation) on the day of administration to participate in data analysis. 25 μmol of cell viability chemiluminescence detection reagent was added to each well of the cell plate and incubated at room temperature for 10 minutes to stabilize the luminescence signal. A multi-marker analyzer reading was used. After the incubation of the cell plate added with the compound was finished, 25 μmol of cell viability chemiluminescence detection reagent was added to each well of the cell plate and incubated at room temperature for 10 minutes to stabilize the luminescence signal. A multi-marker analyzer reading was used.
(§1) The equation (Sample−Min)/(Max−Min)*100% was used to convert the original data into inhibition rate, and the IC50 value could be obtained by curve fitting with four parameters (obtained by “log (inhibitor) vs. response—variable slope” mode in GraphPad Prism).

[1] = tested on: human lung cancer Calu-6 cell subcutaneous xenograft tumor; test: In vivo pharmacodynamic experiment, BALB/c nude mouse model of subcutaneous xenograft tumors of human lung cancer Calu-6 cells; details: 50 mg/kg oral (PO) once a day (QD), Calu-6 xenograft in BALB/c nude mice, vs solvent control; P<0.01
Method: Experimental Embodiment 7: In Vivo Pharmacodynamic Experiment of the BALB/c Nude Mouse Model of Subcutaneous Xenograft Tumors of Human Lung Cancer Calu-6 Cells
Age of arrival: 6 to 8 weeks old
Cells: Calu-6 cells of human lung cancer were cultured in vitro, and 0.2 Units/mL bovine insulin, 10% fetal bovine serum were added to EMEM culture medium in a 37° C. and 5% CO2 incubator for culture. Conventional digestion with trypsin-EDTA was performed twice a week for passage. When the cell saturation was 80%-90% and the number of the cells reached the requirement, and the cells were collected, counted, and seeded.
Cell inoculation: 0.2 mL of Calu-6 cell (mixed in a ratio of 1:1 with matrix gel) was subcutaneously inoculated on the right back of each mouse, and group administration was started when the average tumor volume reached […],
Tumor diameters were measured with vernier calipers twice a week. The calculation formula of tumor volume was: V=0.5a×b^2, and a and b represent the long and short diameters of the tumor, respectively.
The tumor inhibition efficacy of the compounds was evaluated by TGI (%) or relative tumor proliferation rate T/C (%). Relative tumor proliferation rate T/C (%)=TRTV/CRTV×100% (TRTV: RTV in the treatment group; CRTV: RTV in the negative control group). The relative tumor volume (RTV) was calculated according to the results of tumor measurement, and the formula was RTV=Vt/V0, wherein V0 was the tumor volume measured at the time of group administration (i.e., D0), and Vt was the tumor volume measured at a certain measurement, and TRTV and CRTV were taken on the same day.
TGI (%), reflecting the tumor growth inhibition rate. TGI (%)=[1−(average tumor volume at the end of administration in a treatment group−average tumor volume at the beginning of administration in this treatment group)/(average tumor volume at the end of treatment in a solvent control group−average tumor volume at the beginning of treatment in this solvent control group)]×100%.
Statistical analysis was based on the data of RTV at the end of the experiment, and SPSS software was used for analysis. One-way ANOVA was used for comparison between two groups, and the variance was uneven (there was significant difference in F value), and Games-Howell method was used to test, p<0.05 was considered a significant difference.

A375 cells = test: A375 (BRAF V600E) antiproliferative activity experiment (CellTiter-glo); type: cell-based; details: Homo sapiens, A-375, 120 h, cultured 5 days
Method: Experimental Embodiment 3: A375 (BRAF^V600E) Antiproliferative Activity Experiment
Cell line A375 (purchased from Procell). DMEM culture medium, penicillin/streptomycin antibiotics were purchased from Vicente, and fetal bovine serum was purchased from Biosera. CellTiter-glo (cell viability chemiluminescence detection reagent) reagent was purchased from Promega.
A375 cells were seeded in a white 96 well plate with […] of cell suspension per well containing 2000 of A375 cells. The cell plate was placed in a carbon dioxide incubator and cultured overnight. The compound to be tested was diluted 3-fold to the 9th concentration with a pipette, that is, diluted from 6 mmol to 0.91 μmol, and a double-duplicate experiment was set-up, 78 μmol of culture medium was added to the middle plate, then 2 μmol of gradient dilution compound per well was transferred to the middle plate according to the corresponding position, and 20 μmol per well was mixed and transferred to the cell plate. The concentration of the compound transferred to the cell plate ranged from 30 μmol to 4.57 nmol. The cell plate was placed in a carbon dioxide incubator and cultured for 5 days. Another cell plate was prepared, and the signal value was read as the maximum value (max value in the following equation) on the day of administration to participate in data analysis, 25 μmol of cell viability chemiluminescence detection reagent was added to each well of the cell plate and incubated at room temperature for 10 minutes to stabilize the luminescence signal. A multi-marker analyzer reading was used. After the incubation of the cell plate added with the compound was finished, 25 μmol of cell viability chemiluminescence detection reagent was added to each well of the cell plate and incubated at room temperature for 10 minutes to stabilize the luminescence signal. A multi-marker analyzer reading was used.
as §1

[2] = tested on: ERK phosphorylation in Calu-6 cells; test: Calu-6 (Kras Q61K) ERK phosphorylation inhibition experiment (HTRF); type: cell-based, human; details: Homo sapiens, Calu-6, 1 h, 1 hour incubation with compound
Method: Experimental Embodiment 5: Calu-6 (Kras^Q61K) ERK Phosphorylation Inhibition Experiment
1) the cells were resuscitated and cultured to logarithmic growth phase, digested with trypsin, seeded in 96-well plates with 30000 cells per well, and incubated overnight in an incubator.
2) 1 μL of gradient compound dissolved with DMSO was added to a 96-well plate and placed back into an incubator to incubate for 1 hour.
3) The cell plates were removed out, and the culture medium was poured off, and 50 μL of cell lysate (with 1% blocking peptide) was added to each well.
4) The lysate plate was mixed at 500 rpm and incubated and lysed at room temperature for 30 minutes.
5) The antibody mixture in the kit was prepared at a ratio of 1:1:38.
6) 16 μL of cell lysate was transferred to the HTRF plate per well, then the 4 μL of the configured antibody mixture was added thereto.
7) After incubation overnight, the plate was read with Envision, and the fitted curve was obtained according to the ratio (the ratio of fluorescence intensity of […]) and the EC50 was calculated according to the four-parameter fitting formula Y=Bottom+(Top−Bottom)/(1+10^((Log EC50−X)*HillSlope)) of Graphpad.

## [2H]C1([2H])CC(Nc2ncc(Cl)c(-c3ccc4c(c3)S(=O)(=O)N([C@H](C)C(=O)N[C@H](CO)c3cc(F)cc(OC)c3)C4)n2)CC([2H])([2H])O1 [Compound 9]
Colo205 cells
  IC50: 14 nM
[1]
  TGI (tumor growth inhibition rate): 108%
A375 cells
  IC50: 14 nM
[2]
  IC50: 3.99 nM

## COc1cc(F)cc([C@@H](CO)NC(=O)[C@@H](C)N2Cc3ccc(-c4nc(N[C@H]5CCOC[C@H]5F)ncc4Cl)cc3S2(=O)=O)c1 [Compound 11]
Colo205 cells
  IC50: 16 nM
[1]
  TGI (tumor growth inhibition rate): 109%
A375 cells
  IC50: 16 nM
[2]
  IC50: 6.51 nM

## COc1cc(F)cc([C@@H](CO)NC(=O)[C@@H](C)N2Cc3ccc(-c4nc(NC5CCOCC5)ncc4Br)cc3S2(=O)=O)c1 [Compound 3]
Colo205 cells
  IC50: 16 nM
[1]
  TGI (tumor growth inhibition rate): 110%
A375 cells
  IC50: 13 nM
[2]
  IC50: 3.98 nM

## COc1cc(F)cc([C@@H](CO)NC(=O)[C@@H](C)N2Cc3ccc(-c4nc(NC5CCOCC5)ncc4Cl)cc3S2(=O)=O)c1 [Compound 1]
[1]
  TGI (tumor growth inhibition rate): 107%
A375 cells
  IC50: 15 nM
[2]
  IC50: 5.88 nM
